Reference: patent publication US20050004126A1 (priority 2001, published 2005)

The compounds below were run against MMP-13CD (catalytic domain of collagenase 3) (Homo sapiens, UniProt P45452) (assay: Thiopeptolide hydrolysis assay, MMP-13). Conditions: MMP 13 IC50 μM, Table III.
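Further: inhibition of enzymatic thiopeptolide substrate cleavage (100 µM) in pH 6.0 MES buffer with CaCl2 and DTNB, comparing hydrolysis with versus without inhibitor.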

| Compound | IC50 [µM] |
| --- | --- |
| CCOc1ccccc1COC(=O)c1cc2c(=O)n(Cc3ccc(C(=O)O)cc3)c(=O)n(C)c2s1 | 8 |
| COC(=O)CCCCn1c(=O)c2cc(C(=O)OCc3ccccc3)sc2n(C)c1=O | 0.15 |
| COc1ccc(CNC(=O)c2cc3c(=O)n(Cc4ccc5nocc5c4)c(=O)n(C)c3s2)cc1 | 0.018 |
| COc1cccc(CNC(=O)c2cc3c(=O)n(CS(=O)(=O)Cc4ccccc4)c(=O)n(C)c3s2)c1 | 1.7 |
| COc1cccc(CNC(=O)c2cc3c(=O)n(Cc4ccc5cocc5c4)c(=O)n(C)c3s2)c1 | 0.0505 |

Same assay, conditions: MMP13 IC50 μM, Table IVb

| Compound | IC50 [µM] |
| --- | --- |
| COc1ccc(CNC(=O)c2ccc3c(c2)c(=O)n(CCn2cccc2)c(=O)n3C)cc1 | 1.45 |
| COc1ccc(CNC(=O)c2ccc3c(c2)c(=O)n(Cc2ccc(-c4ccccc4-c4nnn[nH]4)cc2)c(=O)n3C)cc1 | 0.025 |
| Cn1c(=O)n(CC=Cc2ccncc2)c(=O)c2cc(C(=O)NCc3ccncc3)ccc21 | 0.24 |
| COc1ccc(CNC(=O)c2ccc3c(c2)c(=O)n(Cc2ccc(-c4nn[nH]n4)cc2)c(=O)n3C)cc1 | 0.0009 |
| COc1ccc(CNC(=O)c2ccc3c(c2)c(=O)n(Cc2ccc(-c4noc(=O)[nH]4)cc2)c(=O)n3C)cc1 | 0.0015 |
| Cn1c(=O)n(Cc2ccncc2)c(=O)c2cc(C(=O)NCc3ccc(O)cc3)ccc21 | 0.051 |
| C#CCn1c(=O)c2cc(C(=O)NCc3ccc(OC)cc3)ccc2n(C)c1=O | 0.68 |
| COc1ccc(CNC(=O)c2ccc3c(c2)c(=O)n(Cc2ccccn2)c(=O)n3C)cc1 | 0.43 |
| COc1ccc(CNC(=O)c2ccc3c(c2)c(=O)n(Cc2cccnc2)c(=O)n3C)cc1 | 0.046 |
| CC(c1cccc2ccccc12)n1c(=O)c2cc(C(=O)NCc3ccc4c(c3)OCO4)ccc2n(C)c1=O (centres unmarked) | 9.4 |
| COc1ccc(CNC(=O)c2ccc3c(c2)c(=O)n(CC=C(C)C)c(=O)n3C)cc1 | 0.2 |
| COc1ccc(CNC(=O)c2ccc3c(c2)c(=O)n(Cc2ccc(-c4nnnn4C)cc2)c(=O)n3C)cc1 | 0.0023 |
| COc1ccc(CNC(=O)c2ccc3c(c2)c(=O)n(Cc2ccc(-c4nnn(C)n4)cc2)c(=O)n3C)cc1 | 0.004 |
| COc1ccc(CNC(=O)c2ccc3c(c2)c(=O)n(Cc2ccc(-c4nc(C)no4)cc2)c(=O)n3C)cc1 | 0.0029 |
| COc1ccc(CNC(=O)c2ccc3c(c2)c(=O)n(Cc2ccc(-c4noc(C)n4)cc2)c(=O)n3C)cc1 | 0.0049 |
| CNC(=O)c1ccc(Cn2c(=O)c3cc(C(=O)NCc4ccc(OC)cc4)ccc3n(C)c2=O)cc1 | 0.0064 |
| Cn1c(=O)c2cc(C(=O)NCc3ccc4c(c3)OCO4)cnc2n(C)c1=O | 3.85 |
| Cn1c(=O)c2cc(C(=O)NCc3ccc4c(c3)OCO4)ncc2n(C)c1=O | 0.18 |
| COc1ccc(CNC(=O)c2ccc3c(c2)c(=O)n(Cc2ccc(C(=O)O)c(Cl)c2)c(=O)n3C)cc1 | 0.004 |
| COc1ccc(CNC(=O)c2ccc3c(c2)c(=O)n(Cc2ccc(C(=O)O)c(F)c2)c(=O)n3C)cc1 | 0.001 |
| COc1ccc(CNC(=O)c2ccc3c(c2)c(=O)n(Cc2ccc(C(=O)O)c(O)c2)c(=O)n3C)cc1 | 0.0016 |

| Compound | IC50 [µM] |
| --- | --- |
| COc1ccc(CNC(=O)c2ccc3c(c2)c(=O)n(Cc2ccc(C(=O)O)c(OC)c2)c(=O)n3C)cc1 | 0.0045 |
| COc1ccc(CNC(=O)c2ccc3c(c2)c(=O)n(Cc2ccc(C(=O)OCCN(C)C)c(OC)c2)c(=O)n3C)cc1 | 0.5 |
| COc1ccc(CNC(=O)c2ccc3c(c2)c(=O)n(Cc2ccc(C(=O)O)c(C)c2)c(=O)n3C)cc1 | 0.0018 |
| C=CCn1c(=O)c2cc(C(=O)NCc3ccc(OC)cc3)ccc2n(C)c1=O | 1.01 |
| COc1ccc(CNC(=O)c2ccc3c(c2)c(=O)n(Cc2ccc4nonc4c2)c(=O)n3C)cc1 | 0.018 |
| Cn1c(=O)n(Cc2ccccc2)c(=O)c2cc(C(=O)NCc3ccc(C#N)cc3)ccc21 | 0.34 |
| Cn1c(=O)n(Cc2ccccc2)c(=O)c2cc(C(=O)NCCCSc3ccncc3)ccc21 | 0.026 |
| Cn1c(=O)n(Cc2ccccc2)c(=O)c2cc(C(=O)OC/C=C/c3ccncc3)ccc21 | 0.385 |
| Cn1c(=O)n(Cc2ccccc2)c(=O)c2cc(C(=O)OC/C=C/c3cccnc3)ccc21 | 0.34 |
| Cn1c(=O)n(Cc2ccccc2)c(=O)c2cc(C(=O)CSc3ccncc3)ccc21 | 3.4 |
| COc1ccc(CNC(=O)c2ccc3c(c2)c(=O)n(CC(N)=O)c(=O)n3C)cc1 | 1.95 |
| COc1ccc(CNC(=O)c2ccc3c(c2)c(=O)n(CCS(=O)(=O)c2ccccc2)c(=O)n3C)cc1 | 0.84 |
| COc1ccc(CNC(=O)c2ccc3c(c2)c(=O)n(CCOc2ccc(F)cc2)c(=O)n3C)cc1 | 0.15 |
| COc1ccc(CNC(=O)c2ccc3c(c2)c(=O)n(Cc2ccc(-c4ccccc4C#N)cc2)c(=O)n3C)cc1 | 0.025 |
| Cn1c(=O)n(Cc2cccc(F)c2)c(=O)c2cc(C(=O)NCc3ccncc3)ccc21 | 0.017 |
| COc1ccc(CNC(=O)c2ccc3c(c2)c(=O)n(Cc2ccc(NC(C)=O)cc2)c(=O)n3C)cc1 | 0.009 |
| COc1ccc(CNC(=O)c2ccc3c(c2)c(=O)n(Cc2ccc(CN)cc2)c(=O)n3C)cc1 | 0.07 |
| COc1ccc(CNC(=O)c2cc3c(=O)n(Cc4ccc(C#N)cc4)c(=O)n(C)c3cn2)cc1 | 0.0011 |
| Cn1c(=O)n(Cc2ccc(C#N)cc2)c(=O)c2cc(C(=O)NCc3ccncc3)ccc21 | 0.053 |
| COc1ccc(CNC(=O)c2ccc3c(c2)c(=O)n(Cc2ccc(N(C)C)cc2)c(=O)n3C)cc1 | 0.028 |
| COc1ccc(CNC(=O)c2ccc3[nH]c(=O)n(Cc4ccc(N(C)C)cc4)c(=O)c3c2)cc1 | 0.075 |

| Compound | IC50 [µM] |
| --- | --- |
| Cn1c(=O)n(Cc2ccc(O)cc2)c(=O)c2cc(C(=O)NCc3ccncc3)ccc21 | 0.057 |
| COc1ccc(Cn2c(=O)c3cc(C(=O)NCc4ccncc4)ccc3n(C)c2=O)cc1 | 0.06 |
| COc1ccc(CNC(=O)c2ccc3c(c2)c(=O)n(Cc2ccc(NS(C)(=O)=O)cc2)c(=O)n3C)cc1 | 0.004 |
| COc1ccc(CNC(=O)c2ccc3c(c2)c(=O)n(Cc2ccc(N)nc2)c(=O)n3C)cc1 | 0.053 |
| CCn1c(=O)n(Cc2ccc(C(=O)O)cc2)c(=O)c2cc(C(=O)NCc3ccc(OC)cc3)ccc21 | 0.003 |
| Cn1c(=O)n(Cc2ccc(C(=O)O)cc2)c(=O)c2cc(C(=O)NCc3ccncc3)ccc21 | 0.0057 |
| CSc1ccc(CNC(=O)c2ccc3c(c2)c(=O)n(Cc2ccc(C(=O)O)cc2)c(=O)n3C)cc1 | 0.0029 |
| COc1cccc(CNC(=O)c2cc3c(=O)n(Cc4ccc(C(=O)O)cc4)c(=O)n(C)c3cn2)c1 | 0.0011 |
| COc1cccc(CNC(=O)c2ccc3c(c2)c(=O)n(Cc2ccc(C(=O)O)cc2)c(=O)n3C)c1 | 0.0009 |
| Cn1c(=O)n(Cc2ccc(C(=O)O)cc2)c(=O)c2cc(C(=O)NCc3ccc(F)cc3)ccc21 | 0.0018 |
| COc1ccc(CNC(=O)c2ccc3c(c2)c(=O)n(Cc2ccc(C(=O)OCCN(C)C)c(C)c2)c(=O)n3C)cc1 | 0.11 |
| COc1ccc(CNC(=O)c2cc3c(=O)n(Cc4ccc(C(=O)O)cc4)c(=O)n(C)c3cn2)cc1 | 0.00074 |
| Cn1c(=O)n(Cc2ccc(C(=O)O)cc2)c(=O)c2cc(C(=O)NCc3ccc4c(c3)OCO4)ccc21 | 0.0009 |
| Cn1c(=O)n(Cc2ccc(C(=O)O)cc2)c(=O)c2cc(C(=O)NCc3ccc4nonc4c3)ccc21 | 0.003 |
| COc1ccc(CNC(=O)c2ccc3c(c2)c(=O)n(Cc2ccc(-c4ccccc4C(=O)O)cc2)c(=O)n3C)cc1 | 0.013 |
| CCOC(=O)c1ccc(Cn2c(=O)c3cc(C(=O)NCc4ccc(OC)cc4)ccc3n(C)c2=O)cc1F | 0.009 |
| CCOC(=O)COc1ccc(CNC(=O)c2ccc3c(c2)c(=O)n(Cc2ccccc2)c(=O)n3C)cc1 | 0.72 |
| COC(=O)c1ccc(Cn2c(=O)c3cc(C(=O)NCc4ccc(OC)cc4)ccc3n(C)c2=O)cc1Cl | 0.14 |
| COC(=O)c1ccc(Cn2c(=O)c3cc(C(=O)NCc4ccc(OC)cc4)ccc3n(C)c2=O)cc1O | 0.0043 |
| COC(=O)c1ccc(Cn2c(=O)c3cc(C(=O)NCc4ccc(OC)cc4)ccc3n(C)c2=O)cc1OC | 0.05 |
| COC(=O)c1ccc(Cn2c(=O)c3cc(C(=O)NCc4ccc(OC)cc4)ccc3n(C)c2=O)cc1C | 0.0077 |

| Compound | IC50 [µM] |
| --- | --- |
| CCn1c(=O)n(Cc2ccc(C(=O)OC)cc2)c(=O)c2cc(C(=O)NCc3ccc(OC(F)(F)F)cc3)ccc21 | 0.34 |
| CCn1c(=O)n(Cc2ccc(C(=O)OC)cc2)c(=O)c2cc(C(=O)NCc3ccc(OC)cc3)ccc21 | 0.031 |
| COC(=O)c1ccc(Cn2c(=O)c3cc(C(=O)NCc4cc[n+]([O-])cc4)ccc3n(C)c2=O)cc1 | 0.1 |
| COC(=O)c1ccc(Cn2c(=O)c3cc(C(=O)NCc4ccncc4)ccc3n(C)c2=O)cc1 | 0.023 |
| COC(=O)c1ccc(Cn2c(=O)c3cc(C(=O)NCc4ccc(SC)cc4)ccc3n(C)c2=O)cc1 | 0.023 |
| COC(=O)c1ccc(Cn2c(=O)c3cc(C(=O)NCc4cccc(OC)c4)ccc3n(C)c2=O)cc1 | 0.003 |
| COC(=O)c1ccc(Cn2c(=O)c3cc(C(=O)NCc4ccc(F)cc4)ccc3n(C)c2=O)cc1 | 0.01 |
| COC(=O)c1ccc(Cn2c(=O)[nH]c3ccc(C(=O)NCc4ccc(OC)cc4)cc3c2=O)cc1 | 0.009 |
| COC(=O)c1ccc(Cn2c(=O)c3cc(C(=O)NCc4ccc5c(c4)OCO5)ccc3n(C)c2=O)cc1 | 0.0028 |
| COC(=O)c1ccc(Cn2c(=O)c3cc(C(=O)NCc4ccc5nonc5c4)ccc3n(C)c2=O)cc1 | 0.035 |
| COC(=O)c1ccccc1-c1ccc(Cn2c(=O)c3cc(C(=O)NCc4ccc(OC)cc4)ccc3n(C)c2=O)cc1 | 0.084 |
| COC(=O)Cc1ccc(Cn2c(=O)c3cc(C(=O)NCc4ccncc4)ccc3n(C)c2=O)cc1 | 0.02 |
| COC(=O)Cn1c(=O)n(Cc2ccccc2)c(=O)c2cc(C(=O)NCc3ccc4c(c3)OCO4)ccc21 | 0.16 |
| Cn1c(=O)n(Cc2ccc(CC(=O)O)cc2)c(=O)c2cc(C(=O)NCc3ccncc3)ccc21 | 0.011 |
| COc1ccc(CNC(=O)c2ccc3c(c2)c(=O)n(-c2ccc(CC(=O)O)cc2)c(=O)n3C)cc1 | 8 |
| Cn1c(=O)n(Cc2ccccc2)c(=O)c2cc(C(=O)NCc3ccc(OCC(=O)O)cc3)ccc21 | 2.9 |
| O=C(O)Cn1c(=O)n(Cc2ccccc2)c(=O)c2cc(C(=O)NCc3ccc4c(c3)OCO4)ccc21 | 0.105 |
| COc1ccc(CNC(=O)c2ccc3c(c2)c(=O)n(Cc2ccc(NC(=O)OC(C)(C)C)nc2)c(=O)n3C)cc1 | 0.015 |
